Target: T1, recombinant human PDK1 (Homo sapiens, UniProt O15530)
T1 construct: containing amino acids 51-556 of the human PDK1 enzyme; made in house; host or cells: Sf9 insect cells
T1 sequence (O15530 51-556): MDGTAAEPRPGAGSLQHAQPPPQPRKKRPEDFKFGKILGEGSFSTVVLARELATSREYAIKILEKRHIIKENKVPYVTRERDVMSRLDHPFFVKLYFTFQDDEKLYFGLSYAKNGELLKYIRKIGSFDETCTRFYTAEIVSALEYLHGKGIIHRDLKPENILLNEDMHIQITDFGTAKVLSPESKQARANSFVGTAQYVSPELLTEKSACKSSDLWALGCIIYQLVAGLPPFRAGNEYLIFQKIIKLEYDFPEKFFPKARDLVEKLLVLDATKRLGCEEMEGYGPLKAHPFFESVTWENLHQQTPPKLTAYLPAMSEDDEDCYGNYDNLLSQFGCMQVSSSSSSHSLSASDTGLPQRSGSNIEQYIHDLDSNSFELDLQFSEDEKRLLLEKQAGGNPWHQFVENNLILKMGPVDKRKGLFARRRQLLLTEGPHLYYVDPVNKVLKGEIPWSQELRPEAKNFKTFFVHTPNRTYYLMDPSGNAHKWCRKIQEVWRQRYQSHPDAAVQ
Test: PDK1 IMAP fluorescence polarization assay (inhibition of peptide substrate phosphorylation)
Assay type: biochemical
Details: Table 10; compounds 97-132

Question: With `CNc1nc(-c2c[nH]c(C(=O)Nc3cccc(F)c3N3CCC(CN)CC3)n2)cc(N2CCO[C@H](CN)C2)n1` [Compound 123, (R)-4-(6-(2-(aminomethyl)morpholino)-2-(methylamino)pyrimidin-4-yl)-N-(2-(4-(aminomethyl)piperidin-1-yl)-3-fluorophenyl)-1H-imidazole-2-carboxamide] as the compound, how does the IC50 read?
Answer: The IC50 was 1 to 50 nM.

Question: With `CNc1nc(-c2c[nH]c(C(=O)Nc3cccc(F)c3N3CCC(CN)CC3)n2)cc(N2CCN[C@@H](C)C2)n1` [Compound 124, (S)—N-(2-(4-(aminomethyl)piperidin-1-yl)-3-fluorophenyl)-4-(2-(methylamino)-6-(3-methylpiperazin-1-yl)pyrimidin-4-yl)-1H-imidazole-2-carboxamide] as the compound, how does the IC50 read?
Answer: Its IC50 is 1 to 50 nM.

Question: With `CNc1nc(-c2c[nH]c(C(=O)Nc3cccc(F)c3N3CCC(CN)CC3)n2)cc(N2CCC(CN)CC2)n1` [Compound 125, 4-(6-(4-(aminomethyl)piperidin-1-yl)-2-(methylamino)pyrimidin-4-yl)-N-(2-(4-(aminomethyl)piperidin-1-yl)-3-fluorophenyl)-1H-imidazole-2-carboxamide] as the compound, how does the IC50 read?
Answer: Its IC50 is 1 to 50 nM.

Question: For `CNc1nc(-c2c[nH]c(C(=O)Nc3cccc(F)c3N3CCC(CN)CC3)n2)cc(N2CCC[C@@H](N)C2)n1` [Compound 126, (R)—N-(2-(4-(aminomethyl)piperidin-1-yl)-3-fluorophenyl)-4-(6-(3-aminopiperidin-1-yl)-2-(methylamino)pyrimidin-4-yl)-1H-imidazole-2-carboxamide], which IC50 is on record?
Answer: Its IC50 is 1 to 50 nM.

Question: With `CNc1nc(-c2c[nH]c(C(=O)Nc3cccc(F)c3N3CCC(CN)CC3)n2)cc(N2CCC(NC)(C(N)=O)CC2)n1` [Compound 127, 1-(6-(2-(2-(4-(aminomethyl)piperidin-1-yl)-3-fluorophenylcarbamoyl)-1H-imidazol-4-yl)-2-(methylamino)pyrimidin-4-yl)-4-(methylamino)piperidine-4-carboxamide] as the compound, how does the IC50 read?
Answer: Its IC50 is 1 to 50 nM.

Question: For `CNc1nc(-c2c[nH]c(C(=O)Nc3cccc(F)c3N3CCC(CN)CC3)n2)cc(N2CC[C@@](OC)(C(N)=O)C2)n1` [Compound 128, (S)—N-(2-(4-(aminomethyl)piperidin-1-yl)-3-fluorophenyl)-4-(6-(3-carbamoyl-3-methoxypyrrolidin-1-yl)-2-(methylamino)pyrimidin-4-yl)-1H-imidazole-2-carboxamide], which IC50 is on record?
Answer: Its IC50 is 1 to 50 nM.

Question: Which IC50 does the source give for `CNc1nc(-c2c[nH]c(C(=O)Nc3cccc(F)c3N3CCC(CN)CC3)n2)cc(N2CC[C@@](OC)(C(=O)NC3CCCCC3)C2)n1` [Compound 129, (S)—N-(2-(4-(aminomethyl)piperidin-1-yl)-3-fluorophenyl)-4-(6-(3-(cyclohexylcarbamoyl)-3-methoxypyrrolidin-1-yl)-2-(methylamino)pyrimidin-4-yl)-1H-imidazole-2-carboxamide] here?
Answer: The IC50 was 1 to 50 nM.

Question: Which IC50 does the source give for `CNc1nc(-c2c[nH]c(C(=O)Nc3cccc(F)c3N3CCC(CN)CC3)n2)cc(N2CC[C@@](COC)(C(=O)NCc3ccccc3)C2)n1` [Compound 130, (R)—N-(2-(4-(aminomethyl)piperidin-1-yl)-3-fluorophenyl)-4-(6-(3-(benzylcarbamoyl)-3-(methoxymethyl)pyrrolidin-1-yl)-2-(methylamino)pyrimidin-4-yl)-1H-imidazole-2-carboxamide] here?
Answer: Its IC50 is 1 to 50 nM.

Question: Which IC50 does the source give for `CNc1nc(-c2c[nH]c(C(=O)Nc3cccc(F)c3N3CCC(CN)CC3)n2)cc(N2CC[C@@](COC)(C(=O)NC3CC3)C2)n1` [Compound 131, (R)—N-(2-(4-(aminomethyl)piperidin-1-yl)-3-fluorophenyl)-4-(6-(3-(cyclopropylcarbamoyl)-3-(methoxymethyl)pyrrolidin-1-yl)-2-(methylamino)pyrimidin-4-yl)-1H-imidazole-2-carboxamide] here?
Answer: Its IC50 is 1 to 50 nM.

Question: Which IC50 does the source give for `CNc1nc(-c2c[nH]c(C(=O)Nc3cccc(F)c3N3CCC(CN)CC3)n2)cc(N2CC[C@@](COC)(C(=O)NC3CCCCC3)C2)n1` [Compound 132, (R)—N-(2-(4-(aminomethyl)piperidin-1-yl)-3-fluorophenyl)-4-(6-(3-(cyclohexylcarbamoyl)-3-(methoxymethyl)pyrrolidin-1-yl)-2-(methylamino)pyrimidin-4-yl)-1H-imidazole-2-carboxamide] here?
Answer: Its IC50 is 1 to 50 nM.

Target: T2, PDK-1 (Homo sapiens, UniProt O15530)
T2 sequence (O15530 1-556): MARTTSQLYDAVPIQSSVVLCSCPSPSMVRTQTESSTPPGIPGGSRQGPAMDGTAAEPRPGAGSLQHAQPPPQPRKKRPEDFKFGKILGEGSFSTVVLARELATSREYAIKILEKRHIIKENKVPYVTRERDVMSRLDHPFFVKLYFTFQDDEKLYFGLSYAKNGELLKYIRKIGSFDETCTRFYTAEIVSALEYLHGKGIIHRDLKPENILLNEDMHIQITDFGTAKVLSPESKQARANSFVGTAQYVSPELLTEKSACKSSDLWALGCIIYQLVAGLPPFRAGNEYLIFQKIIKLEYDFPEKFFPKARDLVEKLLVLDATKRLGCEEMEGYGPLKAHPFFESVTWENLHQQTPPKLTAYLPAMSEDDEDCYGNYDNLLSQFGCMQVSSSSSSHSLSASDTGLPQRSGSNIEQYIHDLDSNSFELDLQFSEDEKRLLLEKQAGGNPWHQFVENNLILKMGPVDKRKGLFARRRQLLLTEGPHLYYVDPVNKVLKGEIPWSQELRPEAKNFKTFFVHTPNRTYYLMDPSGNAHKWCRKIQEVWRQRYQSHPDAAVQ
Test: not given
Details: in vitro; cited from earlier work

Question: Which “enhance PDK-1 phosphorylation of substrates” value does the source give for “PIFtide: "The peptide sequence of PIFtide is RREPRILSEEEQEMFRDFDYIADWC (SEQ ID NO:2)"; "interacts with PDK-1 and is derived from PRK2 kinase" (PIFtide)” here?
Answer: Its value is “approximately 4 fold”.
